Measurements taken from patent US20230242521A1, “PHARMACEUTICAL COMPOSITION FOR PREVENTING OR TREATING PANCREATIC CANCER ASSOCIATED WITH RON MUTATION AND METHOD USING SAME” (WELLMARKER BIO CO., LTD., priority 2020, published 2023).
pIC50: −log10 of the molar value. Structures can show the parent of a compound that is named as a salt.

What was measured:
[1] = test system: Capan-1 pancreatic cancer cell line (mutation RONΔ155 type); experiment: MTS assay, cell growth inhibitory ability, Capan-1; assay type: cell-based; settings: Homo sapiens; Capan-1, RON mutation Δ155, cultured 72 hours
Method: (§1) In order to compare and confirm the cell growth inhibitory ability of Examples 1 (WM-S1-030) to 5 and positive control 1 (BMS-777607) in two pancreatic cancer cell lines ofa mutation RONΔ155 type (Panc-1 and Capan-1) and one pancreatic cancer cell line of a mutation RONΔ160 type (Mia-PaCa2), MTS assay was carried out.
(§2) For MTS assay, 1,000 cells of each pancreatic cancer cell line per well were seeded in a 96-well-plate, and 24 hours later, treated with the compounds of Examples 1 to 5 and positive control 1 at various concentrations (0.000001 μM to 10 μM) in 100 μL of 10% FBS-RPMI medium (Welgene) per each well. Thereafter, the cells were cultured for 72 hours. 20 μL of MTS solution (Promega) was added and cultured for 2 hours, and then absorbance was measured at 490 nm. The cytotoxicity was analyzed by deriving the IC50 for the compounds of Examples 1 to 5 and positive control 1 using GraphPad Prism™ 5.

cyclin D1 = experiment: Immunochemical staining of tumor tissue, Mia-PaCa2 transplanted mouse model: cyclin D1; assay type: in vivo; settings: 10 mpk, 30 mpk, Mia-PaCa2 transplanted mice
Method: (§3) FIG. 3 illustrates the results obtained by immunochemical staining of the tumor tissue for a mouse model transplanted with the Mia-PaCa2 cell line, which is a pancreatic cancer cell line of a mutation RONΔ160 type, having received Example 1 (WM-S1-030) at a dose of 10 mpk or 30 mpk and the positive control (BMS-777607) at a dose of 30 mpk.
(§4) Example 1 (WM-S1-030) was administered at each concentration (10 mpk, 30 mpk) and positive control 1 (BMS-777607) was administered at a dose of 30 mpk to a mouse model transplanted with the Mia-PaCa2 cell line, which is a pancreatic cancer cell line of a mutation RONΔ160 type. The tumor was extracted, and the expression changes of the proteins were analyzed by immunochemical staining.
(§5) Specifically, paraffin slides were prepared using tissues isolated from the sacrificed mice. The tissue sections were deparaffinized and rehydrated, immersed in the target recovery buffer 1× (ScyTek Laboratories, Cat #CBB999) and heated for 15 minutes to perform an antigen recovery process. After the reaction, the tissue sections were washed in Tris buffered saline-0.05% Tween 20 (TBS-T) (T&I, BTT-9310) for 5 minutes, and then the reaction was performed with a non-specific antibody response blocking reagent (vector, SP-5035) for 1 hour. […]

[2] = test system: Mia-PaCa2 pancreatic cancer cell line (mutation RONΔ160 type); experiment: MTS assay, cell growth inhibitory ability, Mia-PaCa2; assay type: cell-based; settings: Homo sapiens; Mia-PaCa-2, RON mutation Δ160, cultured 72 hours
Method: as §1, §2

pTyr-mRON = experiment: Immunochemical staining of tumor tissue, Mia-PaCa2 transplanted mouse model: pTyr-mRON; assay type: in vivo; settings: 10 mpk, 30 mpk, Mia-PaCa2 transplanted mice
Method: as §3, §4, §5

cleaved caspase 3 = experiment: Immunochemical staining of tumor tissue, Mia-PaCa2 transplanted mouse model: cleaved caspase 3; assay type: in vivo; settings: 10 mpk, 30 mpk, Mia-PaCa2 transplanted mice
Method: as §3, §4, §5

[3] = test system: Panc-1 pancreatic cancer cell line (mutation RONΔ155 type); experiment: MTS assay, cell growth inhibitory ability, Panc-1; assay type: cell-based; settings: Homo sapiens; Panc-1, RON mutation Δ155, cultured 72 hours
Method: as §1, §2

[4] = test system: Mia-PaCa2 (mRONΔ160) pancreatic cancer cell line transplanted tumor; experiment: Tumor growth inhibition in Mia-PaCa2 transplanted mouse model; assay type: in vivo; settings: orally once a day for 4 weeks; for Tumor growth inhibition rate (TGI, %): 30 mg/kg, BALB/c-nude mice with Mia-PaCa2 tumor; for tumor growth inhibition (in words): 30 mpk, Mia-PaCa2 transplanted mice
Excerpt: FIG. 2 illustrates the results obtained by confirming the tumor growth rate for a mouse model transplanted with the Mia-PaCa2 cell line, which is a pancreatic cancer cell line of a mutation RONΔ160 type, having received Example 1 (WM-S1-030) at a dose of 30 mpk and positive control 1 (BMS-777607) at a dose of 30 mpk. It was confirmed whether tumor growth was inhibited by administering Example 1 (WM-S1-030) at a dose of 30 mpk to a mouse model transplanted with Mia-PaCa2, which is a pancreatic cancer cell line of a mutation RONΔ160 type. Specifically, 5-week-old female BALB/c-nude mice were purchased and acclimatized for 1 week. Thereafter, Mia-PaCa2 (2×10^6 cells/mouse), a pancreatic cancer cell line of a mutation RONΔ160 type, was diluted in PBS (phosphate buffered saline) and Matrigel, and 100 μL was injected subcutaneously into the right dorsal side of the mouse. When the size of the tumor reached about 100 mm^3, the negative control (excipient) and Example 1 were orally administered. In this case, positive control 1 (BMS-777607) was administered at a dose of 30 mpk. The drug was administered once a day for 4 weeks, and the tumor size and body weight were measured twice a week. After the drug administration was completed, the mice were euthanized, the tumor was extracted, and the weight was measured.

[5] = test system: pancreatic cancer cell lines of mutation RONΔ155 type (Panc-1 and Capan-1) and RONΔ160 type (Mia-PaCa2); experiment: MTS assay, text summary over the three pancreatic cancer cell lines; assay type: cell-based; settings: Panc-1, Capan-1, Mia-PaCa2; 0.000001 μM to 10 μM, 72 hours
Method: as §1, §2

[6] = test system: pancreatic cancer cell lines of a mutation RON type (Panc-1, Capan-1, Mia-PaCa2); experiment: Cell killing efficacy, trypan blue exclusion assay; assay type: cell-based; settings: 1 μM and 5 μM, 48 hours
Method: FIGS. 1A to IC illustrate the results obtained by comparing and confirming the cell killing efficacy for the Panc-1 and Capan-1 cell lines, which are pancreatic cancer cell lines of a mutation RONΔ155 type, and the Mia-PaCa2 cell line, which is a pancreatic cancer cell line of a mutation RONΔ160 type, having been treated with the compounds of Examples 1 (WM-S1-030) to 5 and positive control 1 (BMS-777607) at a concentration of 1 μM and 5 μM, respectively.
Two pancreatic cancer cell lines of a mutation RONΔ155 type (Panc-1 and Capan-1) and one pancreatic cancer cell line of a mutation RONΔ160 type (Mia-PaCa2) were dispensed, and 24 hours later, treated with 1 μM and 5 μM of the compounds of Examples 1 (WM-S1-030) to 5 and positive control 1 (BMS-777607), respectively, while replacing the medium. After 48 hours, the cells and the cell fluid were harvested (1,500 rpm, 4 minutes), and live cells and dead cells were quantified through trypan blue (15250-061, Gibco) exclusion assay. Statistical analysis was performed using T-test in Excel.

| SMILES | pIC50 [1] | pIC50 [2] | pIC50 [3] | expression of cyclin D1 (PD marker) in tumor tissue (cyclin D1) | expression of pTyr-mRON in tumor tissue (pTyr-mRON) | expression of cleaved caspase 3 in tumor tissue (cleaved caspase 3) | Tumor growth inhibition rate (TGI, %) [4] [%] | tumor growth inhibition (in words) [4] | response to the drug / cell growth inhibition (MTS) [5] | cell death / response to the drug (trypan blue exclusion) [6] |
| --- | --- | --- | --- | --- | --- | --- | --- | --- | --- | --- |
| CCOc1ccn(-c2ccccc2)c(=O)c1C(=O)Nc1ccc(Oc2ccnc3cc(-c4ccc(CNCCOC)cn4)sc23)c(F)c1 [Example 2, 4-ethoxy-N-(3-fluoro-4-{[2(5-{[(2-methoxyethyl)amino]methyl}pyridin-2-yl)thieno[3,2-b]pyridin-7-yl]oxy}phenyl)-2-oxo-1-phenyl-1,2-dihydropyridine-3-carboxamide hydrochloride] | 5.81 | 5.74 | 5.41 |  |  |  |  |  |  |  |
| CCOc1ccn(-c2ccccc2)c(=O)c1C(=O)Nc1ccc(Oc2ccnc3cc(-c4ccc(CN5CCN(C)CC5)cn4)sc23)c(F)c1 [Example 3, 4-ethoxy-N-{3-fluoro-4-[(2-(5-[(-methylpiperazin-1-yl)methyl]pyridin-2-yl)thieno[3,2-b]pyridin-7-yl)oxy]phenyl}-2-oxo-1-phenyl-1,2-dihydropyridine-3-carboxamide hydrochloride] | 6.43 | 6.60 | 5.96 |  |  |  |  |  |  |  |
| COc1cc2c(Oc3ccc(NC(=O)c4c5c(cn(-c6ccc(F)cc6)c4=O)CCO5)cc3F)ccnc2cc1OCCCN1CC(C#N)C1 [Example 5, N-[4-({7-[3-(3-cyanoazetidin-1-yl)propoxy]-6-methoxyquinolin-4-yl}oxy)-3-fluorophenyl]-5-(4-fluorophenyl)-6-oxo-2,3,5,6-tetrahydrofuro[3,2-c]pyridine-7-carboxamide] | 6.77 | 6.82 | 6.51 |  |  |  |  |  |  |  |
| CCOc1ccn(-c2ccc(F)cc2)c(=O)c1C(=O)Nc1ccc(Oc2ccnc(N)c2Cl)c(F)c1 [Positive control 1, N-{4-[(2-amino-3-chloro-4-pyridinyl)oxy]-3-fluorophenyl}-4-ethoxy-1-(4-fluorophenyl)-2-oxo-1,2-dihydro-3-pyridinecarboxamide, reference compound] | < 5.00 | 5.22 | < 5.00 |  |  |  | 4.7 ± 7.4 | tumor growth was inhibited relatively little | the response to the drug was low | the response to the drug was low |

Now from value to compound, other results behind:

| pIC50 [1] | pIC50 [2] | pIC50 [3] | SMILES | expression of cyclin D1 (PD marker) in tumor tissue (cyclin D1) | expression of pTyr-mRON in tumor tissue (pTyr-mRON) | expression of cleaved caspase 3 in tumor tissue (cleaved caspase 3) | Tumor growth inhibition rate (TGI, %) [4] [%] | tumor growth inhibition (in words) [4] | response to the drug / cell growth inhibition (MTS) [5] | cell death / response to the drug (trypan blue exclusion) [6] |
| --- | --- | --- | --- | --- | --- | --- | --- | --- | --- | --- |
| 6.20 | 6.21 | 5.61 | CCOc1ccn(-c2ccc(F)cc2)c(=O)c1C(=O)Nc1ccc(Oc2ccnc3cc(-c4ccc(CN5CCOCC5)cn4)sc23)c(F)c1.Cl [Example 1, 4-ethoxy-N-[3-fluoro-4-({2-[5-(morpholinomethyl)pyridin-2-yl]thieno[3,2-b]pyridin-7-yl}oxy)phenyl]-1-(4-fluorophenyl)-2-oxo-1,2-dihydropyridine-3-carboxamide hydrochloride] | the expression of cyclin D1, a PD marker, was decreased | the expression of pTyr-mRON was decreased | the expression of cleaved caspase 3 was induced | 57.2 ± 3.1 | tumor growth was significantly inhibited |  |  |
| 6.49 | 6.43 | 6.34 | COc1cc2c(Oc3ccc(NC(=O)c4c5c(cn(-c6ccc(F)cc6)c4=O)CCO5)cc3F)ccnc2cc1OCCN1CCOCC1 [Example 4, N-(3-fluoro-4-{[6-methoxy-7-(2-morpholinoethoxy)quinolin-4-yl]oxy}phenyl)-5-(4-fluorophenyl)-6-oxo-2,3,5,6-tetrahydrofuro[3,2-c]pyridine-7-carboxamide] |  |  |  |  |  |  |  |
